This is an account of results in article PMC8179002, “Inhibitors of thiol-mediated uptake” (Chemical Science, 2020).

The subject of assay [1] is cellular uptake of 1 in HeLa Kyoto cells. The assay is described as follows: cells. The format is cell-based. Conditions: for minimal effective concentration: read-out: MIC, inhibition of cellular uptake of 1; for IC50: read-out: IC50, inhibition of cellular uptake of 1; for MIC (concentration that causes ∼15% reduction of reporter uptake), against reporter 1: pre-incubation time not given (Fig. 2: 1 h pre-incubation, 30 min with reporter; some 15 min). In a few lines:
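HeLa Kyoto cells were pre-incubated with inhibitors at varying concentrations and times, washed, then given reporter 1 at 10 μM final for 30 min at 37°C; alternatively, inhibitors were kept during reporter exposure. Hoechst/PI staining and 10x high-content imaging gave mean intracellular fluorescence per cell and viability from PI-negative nuclei.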

The test system of assay [2] is cellular uptake of 2 in HeLa Kyoto cells. As to the kind of experiment: cells. The format is cell-based.
[3] abbreviates: HeLa Kyoto, 0.5 h, HeLa, tpre 5.5 h with FBS, then tco 0.5 h co-incubation of inhibitor and 1 (10 µM).
[4] abbreviates: HeLa Kyoto, 0.5 h, HeLa, tpre 23.5 h with FBS, then tco 0.5 h co-incubation of inhibitor and 1 (10 µM).
[5] abbreviates: HeLa Kyoto, 1 h, HeLa, tpre 1 h with inhibitor, removal, tinc 0.5 h with 1 (10 µM).
Where [6] appears, read: HeLa Kyoto, HeLa, tpre 1 h with inhibitor, removal, tinc 0.5 h with 1 (10 µM).
The mark [7] stands for this setting: HeLa Kyoto, HeLa, tpre 5.5 h with FBS, then tco 0.5 h co-incubation of inhibitor and 1 (10 µM).
[8] abbreviates: HeLa Kyoto, HeLa, tpre 23.5 h with FBS, then tco 0.5 h co-incubation of inhibitor and 1 (10 µM).
The mark [9] stands for this setting: HeLa, tpre 4 h with inhibitor, removal, tinc 0.5 h with 2 (10 µM).
The mark [10] stands for this setting: HeLa Kyoto, 0.5 h, HeLa, tpre 0.5 h with inhibitor, removal, tinc 0.5 h with 1 (10 µM).
[11] abbreviates: HeLa Kyoto, 2 h, HeLa, tpre 2 h with inhibitor, removal, tinc 0.5 h with 1 (10 µM).
Setting [12] is: HeLa Kyoto, HeLa, tpre 2 h with inhibitor, removal, tinc 0.5 h with 1 (10 µM).
[13] abbreviates: HeLa Kyoto, HeLa, tpre 4 h with inhibitor, removal, tinc 0.5 h with 2 (10 µM), read-out: IC50, inhibition of cellular uptake of 2.
[14] abbreviates: HeLa Kyoto, HeLa, tpre 6 h with FBS, removal, tinc 0.5 h with 2 (10 µM), read-out: IC50, inhibition of cellular uptake of 2.
Where [15] appears, read: HeLa, tpre 6 h with FBS, removal, tinc 0.5 h with 2 (10 µM).

≈ marks a conversion by molar mass, not a printed value. Read-outs that look alike come from different tables or passages of the source. Bridge positions count the residues as written; N and C are the ends. Peptide text beside a SMILES is read from it. Where only a bound is given, the exact number is not on record here.

On to `O=S1(=O)C[C@H](O)[C@H](O)CS1` [compound 16], for which the figures for the minimal effective concentration in assay [1] (setting [3]), in assay [1] (setting [4]) and in assay [1] (setting [5]) were 10 µM, 150 µM and 200 µM, respectively. The concentration for half-maximal inhibition (IC50) (usually the point on the concentration scale where inhibition reaches its midpoint) in assay [1] (setting [6]) was > 1000 µM; in assay [1] (setting [7]), 150 ± 30 µM; in assay [1] (setting [8]) it was 860 ± 60 µM; in assay [2] (HeLa Kyoto, read-out: IC50, inhibition of cellular uptake of 2, HeLa, tpre 4 h with inhibitor, removal, tinc 0.5 h with 2 (10 µM)) it was 183 ± 18 µM. For the same molecule, the “MIC against reporter 2” value in assay [2] (HeLa, longer pre-incubation (Fig. 2: 4 h pre-incubation)) was ~20 µM (≈ 3.68 µg/mL). In addition, the “MIC, inhibition of cellular uptake of 2” value in assay [2] (setting [9]) is recorded as 20 µM.
As to `O=C(CN1C(=O)C2SSC1C(=O)N2CCOc1ccccc1)NCC(=O)OC[C@H]1OC(O)[C@H](O)[C@@H](O)[C@@H]1O` (stereo partly shown) [compound 7], the IC50 in assay [1] (setting [10]) is 23 ± 4 µM; in assay [1] (setting [6]), 27 ± 4 µM; in assay [1] (setting [12]) it was 15 ± 1 µM; in assay [1] (setting [7]), 42 ± 4 µM; in assay [1] (setting [8]) it was > 100 µM; in assay [2] (setting [13]) it was > 100 µM. Also, the half-maximal inhibitory concentration (IC50) in assay [2] (setting [14]) is > 200 µM; in assay [2] (HeLa Kyoto, HeLa, tpre 23.5 h with FBS, then tco 0.5 h co-incubation of inhibitor and 2 (10 µM), read-out: IC50, inhibition of cellular uptake of 2), 41 ± 4 µM. Besides, the minimal effective concentration is 0.5 µM in assay [1] (setting [10]); 6 µM in assay [1] (setting [3]); 54 µM in assay [1] (setting [4]); 0.5 µM in assay [1] (setting [5]); 0.2 µM in assay [1] (setting [11]). Also, in assay [1] (HeLa), the “MIC (concentration that causes ∼15% reduction of reporter uptake), against reporter 1” value is reported as “≈ 0.5 μM”. Besides, the “MIC, inhibition of cellular uptake of 2” value amounted to 70 µM in assay [2] (setting [9]); 180 µM in assay [2] (setting [15]); 15 µM in assay [2] (HeLa, tpre 23.5 h with FBS, then tco 0.5 h co-incubation of inhibitor and 2 (10 µM)).
Regarding `O=C(O)CC[C@H](NC(=O)CN1C(=O)C2SSC1C(=O)N2CCOc1ccccc1)C(=O)O` (stereo partly shown) [compound 9], the IC50 in assay [1] (setting [10]) is 89 ± 9 µM; in assay [1] (setting [6]), 86 ± 13 µM; in assay [1] (setting [12]), > 100 µM; in assay [2] (setting [13]), > 100 µM; in assay [2] (setting [14]), > 200 µM. The minimal effective concentration in assay [1] (setting [10]) was found to be 15 µM; in assay [1] (setting [5]), 7 µM; in assay [1] (setting [11]), 7 µM. The “MIC, inhibition of cellular uptake of 2” value is listed as 60 µM in assay [2] (setting [9]) and 80 µM in assay [2] (setting [15]).
As for `N[C@H]1CSSC[C@@H](C(=O)NCC(=O)O)NC(=O)[C@H](CCC(=O)O)NC1=O` [compound 18] (H-CECG-OH; disulfide 1-3), the minimal effective concentration in assay [1] (2 h) was found to be 200 µM. Besides, in assay [1] (HeLa), the “MIC (concentration that causes ∼15% reduction of reporter uptake), against reporter 1” value is on record as “≈ 300 μM”. Moreover, the IC50 in assay [1] (HeLa, tpre 0.5 h, then tco 0.5 h co-incubation of inhibitor and 1 (10 µM)) was > 500 µM; in assay [1] (HeLa, tpre 0.5 h with inhibitor, removal, tinc 0.5 h with 1 (10 µM)), > 2000 µM; in assay [1] (HeLa, tpre 1 h with inhibitor, removal, tinc 0.5 h with 1 (10 µM)), > 2000 µM; in assay [1] (HeLa, tpre 2 h with inhibitor, removal, tinc 0.5 h with 1 (10 µM)) it was > 2000 µM; in assay [1] (HeLa, tpre 5.5 h with FBS, then tco 0.5 h co-incubation of inhibitor and 1 (10 µM)) it was 1000 ± 110 µM; in assay [1] (HeLa, tpre 23.5 h with FBS, then tco 0.5 h co-incubation of inhibitor and 1 (10 µM)) it was 1000 ± 40 µM. The IC50 in assay [2] (HeLa, tpre 0.5 h, then tco 0.5 h co-incubation of inhibitor and 2 (10 µM), read-out: IC50, inhibition of cellular uptake of 2) was 44 ± 5 µM; in assay [2] (HeLa, tpre 1 h with inhibitor, removal, tinc 0.5 h with 2 (10 µM), read-out: IC50, inhibition of cellular uptake of 2), > 1000 µM; in assay [2] (HeLa, tpre 1.5 h, then tco 0.5 h co-incubation of inhibitor and 2 (10 µM), read-out: IC50, inhibition of cellular uptake of 2), 41 ± 4 µM; in assay [2] (HeLa, tpre 2 h with inhibitor, removal, tinc 0.5 h with 2 (10 µM), read-out: IC50, inhibition of cellular uptake of 2), > 1000 µM; in assay [2] (HeLa, tpre 4 h with inhibitor, removal, tinc 0.5 h with 2 (10 µM), read-out: IC50, inhibition of cellular uptake of 2) it was 859 ± 140 µM. The “MIC, inhibition of cellular uptake of 2” value in assay [2] (HeLa, tpre 0.5 h, then tco 0.5 h co-incubation of inhibitor and 2 (10 µM)) was 4 µM; in assay [2] (HeLa, tpre 1 h with inhibitor, removal, tinc 0.5 h with 2 (10 µM)), 300 µM; in assay [2] (HeLa, tpre 1.5 h, then tco 0.5 h co-incubation of inhibitor and 2 (10 µM)) it was 4 µM; in assay [2] (HeLa, tpre 2 h with inhibitor, removal, tinc 0.5 h with 2 (10 µM)) it was 200 µM; in assay [2] (setting [9]), 100 µM. For the same molecule, in assay [2] (HeLa, upon co-incubation), the “MIC against reporter 2” value is “≈ 5 μM”.
